Test results taken from publication PMC3233971 (Amino acids, 2010).
Residues, ends and D or L forms follow the SMILES beside them. No end group written: not given here. *: point of attachment. IRDye800CW = CC1(C)C(/C=C/C2=C(Oc3ccc(S(=O)(=O)O)cc3)C(=C/C=C3/N(CCCCS(=O)(=O)O)c4ccc(S(=O)(=O)O)cc4C3(C)C)/CCC2)=[N+](CCCCCC(=O)*)c2ccc(S(=O)(=O)[O-])cc21

Experiments:
LS174T tumor [1] = assay: Near-infrared fluorescence imaging of LS174T tumor-bearing mice; conditions: 4 h after i.v. injection; 1 nmol dye/mouse
[2] = tested on: LS174T human colorectal cancer cells; conditions: 300 μg/ml peptide, 48 h exposure, absorbance 570 nm, n = 6
[3] = tested on: human umbilical endothelial cells (HUVEC); conditions: 300 μg/ml peptide, 48 h exposure, absorbance 570 nm, n = 6
LS174T tumor [4] = format: in vivo, mouse; conditions: 20 mg/kg i.p. every other day, 3 doses; 12 days after the optical imaging

CC(C)C[C@H](NC(=O)[C@@H](NC(=O)[C@H](Cc1c[nH]c2ccccc12)NC(=O)CCCCC[N+]1=C(C=CC2=C(Oc3ccc(S(=O)(=O)O)cc3)C(=CC=C3N(CCCCS(=O)(=O)O)c4ccc(S(=O)(=O)O)cc4C3(C)C)CCC2)C(C)(C)c2cc(S(=O)(=O)[O-])ccc21)[C@@H](C)O)C(=O)N[C@@H](CCCNC(=N)N)C(=O)N1CCC[C@H]1C(=O)N[C@H](C(=O)N[C@@H](CC(C)C)C(=O)N[C@@H](Cc1c[nH]cn1)C(=O)N[C@H](C(=O)N[C@@H](CC(=O)O)C(=O)N[C@@H](Cc1c[nH]cn1)C(=O)N[C@@H](C)C(=O)O)[C@@H](C)O)[C@@H](C)O [scrambled peptide dye conjugate] (IRDye800CW-WTLRPTLHTDHA-OH; N-terminus and C-terminus assumed)
renal clearance in NIR fluorescence images (LS174T tumor [1]): cleared through the kidneys much faster than the BRP peptide

LLADTTHHRPWT [BRP]
cell viability (MTT) [2]: 98.3 ± 12.1% | cell viability (MTT) [3]: 92.2 ± 2.4%

bevacizumab: humanized monoclonal antibody directed against human VEGF
tumor volume (LS174T tumor [4]): 476.6 mm^3
